Assay results: article PMC9905601, “Archaeal DNA-import apparatus is homologous to bacterial conjugation machinery” (Nature Communications, 2023)

Biological target: T1, P. calidifontis protein Pcal_0765, TedC (Pyrobaculum calidifontis, UniProt A3MU74)
T1 sequence (A3MU74 23-153): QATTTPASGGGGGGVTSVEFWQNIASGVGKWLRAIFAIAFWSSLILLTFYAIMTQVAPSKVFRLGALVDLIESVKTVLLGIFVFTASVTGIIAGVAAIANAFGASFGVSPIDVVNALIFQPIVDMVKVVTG
Test: cryo-EM structure of native pilus, […] Å
Assay type: binding

## C[C@@H]1CCC[C@H](C)CCC[C@@H](C)CC[C@H](C)CCC[C@@H](C)CCC[C@H](C)CCC[C@H](C)CCOC[C@H](CO)OCC[C@H](C)CCC[C@H](C)CCC[C@H](C)CCC[C@@H](C)CC[C@H](C)CCC[C@@H](C)CCC[C@H](C)CCC[C@H](C)CCOC[C@H](CO)OCC[C@H](C)CCC1 [GDGT-0]
  cryo-EM structure of native pilus, 4.0 Å: we have modeled the simplest form, GDGT-0, into the cryo-EM density
